According to the CheMixHub ionic liquid set:
± gives the uncertainty stated by the source.

Assay: xn = mol fraction of the nth substance listed
Conditions: for electrical conductivity: 101 kPa, frequency 2 MHz; for viscosity: 100 kPa

In the case of `O=S(=O)([O-])C(F)(F)F.[Li+]` + O=S(=O)([N-]S(=O)(=O)C(F)(F)F)C(F)(F)F.[Li+] + O, the electrical conductivity (318.1 K, x2 = 0.001799, x1 = 0.0005943) is reported as 1.16 ± 0.012 S/m, the electrical conductivity (318.1 K, x2 = 0.005377, x1 = 0.001799) is reported as 2.87 ± 0.029 S/m and the electrical conductivity (318.1 K, x2 = 0.00893, x1 = 0.003054) is reported as 4.22 ± 0.042 S/m. The electrical conductivity (318.1 K, x2 = 0.01246, x1 = 0.004127) was 5.324 ± 0.053 S/m, the electrical conductivity (318.1 K, x2 = 0.01596, x1 = 0.005377) was 6.231 ± 0.062 S/m and the electrical conductivity (318.1 K, x2 = 0.01944, x1 = 0.006623) was 6.98 ± 0.07 S/m. For the same compound, the electrical conductivity (318.1 K, x2 = 0.05129, x1 = 0.0177) was 9.39 ± 0.094 S/m, the electrical conductivity (318.1 K, x2 = 0.08265, x1 = 0.02921) was 8.25 ± 0.083 S/m and the electrical conductivity (318.1 K, x2 = 0.112, x1 = 0.04029) was 6.46 ± 0.065 S/m. It also gave an electrical conductivity (318.1 K, x2 = 0.1395, x1 = 0.05129) of 4.845 ± 0.048 S/m, an electrical conductivity (318.1 K, x2 = 0.1654, x1 = 0.06203) of 3.58 ± 0.036 S/m and an electrical conductivity (318.1 K, x2 = 0.1898, x1 = 0.07238) of 2.631 ± 0.026 S/m. It also gave an electrical conductivity (318.1 K, x2 = 0.2128, x1 = 0.08265) of 1.932 ± 0.019 S/m, an electrical conductivity (318.1 K, x2 = 0.2345, x1 = 0.0927) of 1.418 ± 0.014 S/m and an electrical conductivity (318.1 K, x2 = 0.2551, x1 = 0.1024) of 1.04 ± 0.01 S/m. It also gave an electrical conductivity (318.1 K, x2 = 0.2745, x1 = 0.112) of 0.76 ± 0.008 S/m, a viscosity (318.15 K, x1 = 0.04029, x2 = 0.1114) of 4.4 ± 0.4 mPa·s and a viscosity (318.15 K, x1 = 0.07222, x2 = 0.1893) of 15.2 ± 1.2 mPa·s. For the same compound, the viscosity (318.15 K, x1 = 0.09226, x2 = 0.2336) was 31.9 ± 2.6 mPa·s, the viscosity (318.15 K, x1 = 0.1024, x2 = 0.2553) was 43.4 ± 3.5 mPa·s and the viscosity (318.15 K, x1 = 0.1122, x2 = 0) was 2.27 ± 0.18 mPa·s. The viscosity (318.15 K, x1 = 0.1122, x2 = 0.2745) was 63 ± 5 mPa·s, the viscosity (318.15 K, x1 = 0.1783, x2 = 0) was 5.3 ± 0.4 mPa·s and the viscosity (318.15 K, x1 = 0.2388, x2 = 0) was 11.1 ± 0.9 mPa·s. For the same compound, the viscosity (318.15 K, x1 = 0.2541, x2 = 0) was 15.9 ± 1.3 mPa·s, the viscosity (318.15 K, x1 = 0.2743, x2 = 0) was 23.9 ± 1.9 mPa·s and the electrical conductivity (323 K, x2 = 0.001799, x1 = 0.0005943) was 1.26 ± 0.013 S/m. The electrical conductivity (323 K, x2 = 0.005377, x1 = 0.001799) was 3.132 ± 0.031 S/m, the electrical conductivity (323 K, x2 = 0.00893, x1 = 0.003054) was 4.612 ± 0.046 S/m and the electrical conductivity (323 K, x2 = 0.01246, x1 = 0.004127) was 5.82 ± 0.058 S/m. For the same compound, the electrical conductivity (323 K, x2 = 0.01596, x1 = 0.005377) was 6.813 ± 0.068 S/m, the electrical conductivity (323 K, x2 = 0.01944, x1 = 0.006623) was 7.629 ± 0.076 S/m and the electrical conductivity (323 K, x2 = 0.05129, x1 = 0.0177) was 10.26 ± 0.1 S/m. For the same compound, the electrical conductivity (323 K, x2 = 0.08265, x1 = 0.02921) was 9.028 ± 0.09 S/m, the electrical conductivity (323 K, x2 = 0.112, x1 = 0.04029) was 7.08 ± 0.071 S/m and the electrical conductivity (323 K, x2 = 0.1395, x1 = 0.05129) was 5.343 ± 0.053 S/m. It also gave an electrical conductivity (323 K, x2 = 0.1654, x1 = 0.06203) of 3.97 ± 0.04 S/m, an electrical conductivity (323 K, x2 = 0.1898, x1 = 0.07238) of 2.943 ± 0.029 S/m and an electrical conductivity (323 K, x2 = 0.2128, x1 = 0.08265) of 2.18 ± 0.022 S/m. It also gave an electrical conductivity (323 K, x2 = 0.2345, x1 = 0.0927) of 1.616 ± 0.016 S/m, an electrical conductivity (323 K, x2 = 0.2551, x1 = 0.1024) of 1.2 ± 0.012 S/m and an electrical conductivity (323 K, x2 = 0.2745, x1 = 0.112) of 0.884 ± 0.009 S/m. For the same compound, the electrical conductivity (328.1 K, x2 = 0.001799, x1 = 0.0005943) was 1.37 ± 0.014 S/m, the electrical conductivity (328.1 K, x2 = 0.005377, x1 = 0.001799) was 3.4 ± 0.034 S/m and the electrical conductivity (328.1 K, x2 = 0.00893, x1 = 0.003054) was 5.004 ± 0.05 S/m. The electrical conductivity (328.1 K, x2 = 0.01246, x1 = 0.004127) was 6.316 ± 0.063 S/m, the electrical conductivity (328.1 K, x2 = 0.01596, x1 = 0.005377) was 7.39 ± 0.074 S/m and the electrical conductivity (328.1 K, x2 = 0.01944, x1 = 0.006623) was 8.28 ± 0.083 S/m. It also gave an electrical conductivity (328.1 K, x2 = 0.05129, x1 = 0.0177) of 11.13 ± 0.11 S/m, an electrical conductivity (328.1 K, x2 = 0.08265, x1 = 0.02921) of 9.803 ± 0.098 S/m and an electrical conductivity (328.1 K, x2 = 0.112, x1 = 0.04029) of 7.716 ± 0.077 S/m. It also gave an electrical conductivity (328.1 K, x2 = 0.1395, x1 = 0.05129) of 5.846 ± 0.058 S/m, an electrical conductivity (328.1 K, x2 = 0.1654, x1 = 0.06203) of 4.37 ± 0.044 S/m and an electrical conductivity (328.1 K, x2 = 0.1898, x1 = 0.07238) of 3.27 ± 0.033 S/m. The electrical conductivity (328.1 K, x2 = 0.2128, x1 = 0.08265) was 2.439 ± 0.024 S/m, the electrical conductivity (328.1 K, x2 = 0.2345, x1 = 0.0927) was 1.824 ± 0.018 S/m and the electrical conductivity (328.1 K, x2 = 0.2551, x1 = 0.1024) was 1.36 ± 0.014 S/m. For the same compound, the electrical conductivity (328.1 K, x2 = 0.2745, x1 = 0.112) was 1.017 ± 0.01 S/m, the viscosity (328.15 K, x1 = 0.04029, x2 = 0.1114) was 3.5 ± 0.3 mPa·s and the viscosity (328.15 K, x1 = 0.07222, x2 = 0.1893) was 11.5 ± 0.9 mPa·s. The viscosity (328.15 K, x1 = 0.09226, x2 = 0.2336) was 22.9 ± 1.8 mPa·s, the viscosity (328.15 K, x1 = 0.1024, x2 = 0.2553) was 30.9 ± 2.5 mPa·s and the viscosity (328.15 K, x1 = 0.1122, x2 = 0) was 1.85 ± 0.15 mPa·s. The viscosity (328.15 K, x1 = 0.1122, x2 = 0.2745) was 43.6 ± 3.5 mPa·s, the viscosity (328.15 K, x1 = 0.1783, x2 = 0) was 4.2 ± 0.3 mPa·s and the viscosity (328.15 K, x1 = 0.2388, x2 = 0) was 8.6 ± 0.7 mPa·s. It also gave a viscosity (328.15 K, x1 = 0.2541, x2 = 0) of 12.2 ± 1 mPa·s, a viscosity (328.15 K, x1 = 0.2743, x2 = 0) of 18.1 ± 1.5 mPa·s and an electrical conductivity (333 K, x2 = 0.001799, x1 = 0.0005943) of 1.47 ± 0.015 S/m. For the same compound, the electrical conductivity (333 K, x2 = 0.005377, x1 = 0.001799) was 3.66 ± 0.037 S/m, the electrical conductivity (333 K, x2 = 0.00893, x1 = 0.003054) was 5.39 ± 0.054 S/m and the electrical conductivity (333 K, x2 = 0.01246, x1 = 0.004127) was 6.804 ± 0.068 S/m. The electrical conductivity (333 K, x2 = 0.01596, x1 = 0.005377) was 7.97 ± 0.08 S/m, the electrical conductivity (333 K, x2 = 0.01944, x1 = 0.006623) was 8.919 ± 0.089 S/m and the electrical conductivity (333 K, x2 = 0.05129, x1 = 0.0177) was 12 ± 0.12 S/m. The electrical conductivity (333 K, x2 = 0.08265, x1 = 0.02921) was 10.6 ± 0.11 S/m, the electrical conductivity (333 K, x2 = 0.112, x1 = 0.04029) was 8.339 ± 0.083 S/m and the electrical conductivity (333 K, x2 = 0.1395, x1 = 0.05129) was 6.348 ± 0.063 S/m. For the same compound, the electrical conductivity (333 K, x2 = 0.1654, x1 = 0.06203) was 4.78 ± 0.048 S/m, the electrical conductivity (333 K, x2 = 0.1898, x1 = 0.07238) was 3.59 ± 0.036 S/m and the electrical conductivity (333 K, x2 = 0.2128, x1 = 0.08265) was 2.706 ± 0.027 S/m. For the same compound, the electrical conductivity (333 K, x2 = 0.2345, x1 = 0.0927) was 2.041 ± 0.02 S/m.
